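1) Cells in 96-well plates. 2) Compound, 48 h, 5 concentrations. 3) Linear interpolation between surrounding doses. 4) Unreached endpoint = highest concentration. The concentration for 50% growth inhibition is given as GI50. The concentration for full growth arrest is given as TGI.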
How the values were obtained:
Test in all cases: inhibition of tumour cell growth, NCI panel, 48 h
UO-31 renal = tested on: UO-31 renal
MOLT-4 leukemia = tested on: MOLT-4 leukemia
HS 578T breast = tested on: HS 578T breast
OVCAR-5 ovarian = tested on: OVCAR-5 ovarian
ACHN renal = tested on: ACHN renal
NCI-H226 lung = tested on: NCI-H226 lung
SNB-75 CNS = tested on: SNB-75 CNS
SF-268 CNS = tested on: SF-268 CNS
HCC-2998 colon = tested on: HCC-2998 colon
RXF 393 renal = tested on: RXF 393 renal

| Compound | TGI (UO-31 renal) | TGI (MOLT-4 leukemia) | TGI (HS 578T breast) | TGI (OVCAR-5 ovarian) | TGI (ACHN renal) | TGI (NCI-H226 lung) | TGI (SNB-75 CNS) | TGI (SF-268 CNS) | TGI (HCC-2998 colon) | TGI (RXF 393 renal) | GI50 (UO-31 renal) | GI50 (MOLT-4 leukemia) | GI50 (HS 578T breast) | GI50 (OVCAR-5 ovarian) | GI50 (ACHN renal) | GI50 (NCI-H226 lung) | GI50 (SNB-75 CNS) | GI50 (SF-268 CNS) | GI50 (HCC-2998 colon) | GI50 (RXF 393 renal) |
| --- | --- | --- | --- | --- | --- | --- | --- | --- | --- | --- | --- | --- | --- | --- | --- | --- | --- | --- | --- | --- |
| OCCO/N=C1\C(c2c(O)[nH]c3ccccc23)=Nc2ccccc21 | > 100 µM | > 100 µM | > 100 µM | > 100 µM | > 100 µM | > 100 µM | > 100 µM | > 100 µM | > 100 µM | > 100 µM |  |  |  |  |  |  |  |  |  |  |
| CSCSSC | > 100 µM | 90.3 µM | > 100 µM | > 100 µM | > 100 µM | > 100 µM | > 100 µM | > 100 µM | > 100 µM | > 100 µM |  |  |  |  |  |  |  |  |  |  |
| CC(=C(c1ccccc1)c1ccccc1)N1C(=O)CC(=O)N1C | 31.5 µM | 76.3 µM | 55.4 µM | > 100 µM | > 100 µM | > 100 µM | > 100 µM | > 100 µM | > 100 µM | 61.6 µM |  |  |  |  |  |  |  |  |  |  |
| CCNCCCn1c2c(c3ccc(Cl)cc3c1=O)C(=O)c1cc(OC)cnc1-2 | 2.37 µM | 1.62 µM | 4.31 µM | 3.31 µM | 1.35 µM | 5.04 µM | 1.64 µM | 2.04 µM | 2.99 µM | 2.43 µM | 0.543 µM | 0.0384 µM | 1.74 µM | 1.48 µM | 0.154 µM | 1.4 µM | 0.262 µM | 0.33 µM | 1.28 µM | 1.03 µM |
| Cc1ccc(OCC2OC(n3cnc4c(Cl)nc(N)nc43)CC2Oc2ccc(C)cc2)cc1 (stereo not given) | 13.3 µM | > 100 µM | > 100 µM | > 100 µM | 40 µM | > 100 µM | > 100 µM | > 100 µM | > 57.4 µM | > 100 µM |  |  |  |  |  |  |  |  |  |  |
| OCC(O)C(O)C(O)C(O)c1nc2ccc(Cl)cc2[nH]1 (stereo not given) | > 100 µM | > 100 µM | > 100 µM | > 100 µM | > 100 µM | > 100 µM | > 100 µM | > 100 µM | > 100 µM | > 100 µM |  |  |  |  |  |  |  |  |  |  |
| CCCCC(=O)c1c(O)nc2sccn2c1=O | > 10 µM | > 10 µM | > 10 µM | > 10 µM | > 10 µM | > 10 µM | > 10 µM | > 10 µM | > 10 µM | > 10 µM |  |  |  |  |  |  |  |  |  |  |
| NCCCN(CCCN(C(=O)Nc1ccccc1)c1ccccc1)C(=O)Nc1ccccc1 | 65.8 µM | > 100 µM | > 100 µM | > 100 µM | > 100 µM | > 100 µM | 77.6 µM | > 100 µM | 62.3 µM | 86.2 µM |  |  |  |  |  |  |  |  |  |  |
| ClCCCc1ccccc1C1=NCCc2ccccc21 | > 100 µM | > 100 µM | > 100 µM | > 100 µM | > 100 µM | > 100 µM | > 100 µM | > 100 µM | > 100 µM | > 100 µM |  |  |  |  |  |  |  |  |  |  |
| CC(NC(=O)C(NC(=O)CNC(=O)OC(C)(C)C)C(C)C)C(=O)Oc1c(Cl)c(Cl)c(Cl)c(Cl)c1Cl (stereo not given) | 29.5 µM | > 100 µM | 50.1 µM | 31.6 µM | 58.9 µM | 52.6 µM | 78.7 µM | 65.2 µM | 39.4 µM | 44.6 µM |  |  |  |  |  |  |  |  |  |  |
| Cc1ccc(S(=O)(=O)n2c3ccc(Br)cc3c3nc4ccccc4nc32)cc1 | > 100 µM | > 100 µM | > 100 µM | > 100 µM | > 100 µM | 0.879 µM | > 100 µM | > 100 µM | > 100 µM | > 100 µM |  |  |  |  |  |  |  |  |  |  |
| Cc1cc(F)ccc1S(=O)(=O)Nc1cc(-c2c(O)ccc3ccccc23)c(O)c2ccccc12 | 13.3 µM | 14 µM | 10.2 µM | 17.4 µM | 8.03 µM | 14.5 µM | 11.7 µM | 14.3 µM | 4.38 µM | 9.11 µM | 2.38 µM | 3.33 µM | 2.6 µM | 4.55 µM | 2.44 µM | 2.85 µM | 2.32 µM | 3.4 µM | 2.17 µM | 2.53 µM |
| Cc1ccc([S@](=O)c2occc2C=O)cc1 | 23.2 µM | 4.16 µM | 36.1 µM | 34.7 µM | 28.7 µM | 38 µM | 30.9 µM | 14.9 µM | 29.3 µM | 26.3 µM |  |  |  |  |  |  |  |  |  |  |
| Cc1csc(NC23CC4CC(CC(C4)C2)C3)[n+]1C(P(=O)([O-])O)P(=O)(O)O (stereo not given) | > 100 µM | > 100 µM | > 100 µM | > 100 µM | > 100 µM | > 100 µM | > 100 µM | > 100 µM | > 100 µM | > 100 µM |  |  |  |  |  |  |  |  |  |  |
| COC(OC)[C@@H]1OC[C@H](n2cnc3c(N)ncnc32)[C@H]1O | > 100 µM | > 100 µM | > 100 µM | > 100 µM | > 100 µM | > 100 µM | > 100 µM | > 100 µM | > 100 µM | > 100 µM |  |  |  |  |  |  |  |  |  |  |
| CCCCCCCC/C=C\CCCCCCC/C=C1\C[C@](/C=C/C(=O)OC)(CO)OC1=O | 3.76 µM | 10.6 µM | 4.69 µM | 19.5 µM | 7.9 µM | 6.66 µM | 4.59 µM | 4.4 µM | 13.8 µM | 12.3 µM |  |  |  |  |  |  |  |  |  |  |
| N#CC1(C#N)NC(c2cccs2)C(C#N)(C#N)NC1c1cccs1 (stereo not given) | > 100 µM | 60.2 µM | > 100 µM | 92.6 µM | > 100 µM | > 100 µM | > 100 µM | > 100 µM | 93.3 µM | > 100 µM |  |  |  |  |  |  |  |  |  |  |
| O=S(=O)(c1ccc(NC2=NC(c3ccc(O)cc3)(c3ccccc3O)c3ccccc32)cc1)c1ccc(NC2=NC(c3ccc(O)cc3)(c3ccccc3O)c3ccccc32)cc1 (stereo not given) | > 100 µM | 60.1 µM | > 100 µM | > 73.6 µM | > 100 µM | 19.2 µM | > 27.5 µM | > 44.5 µM | 15.4 µM | > 100 µM |  |  |  |  |  |  |  |  |  |  |
| CCCC(=O)NC(Nc1ccc(S(=O)(=O)Nc2cc(C)on2)cc1)(C(=O)OCC)C(F)(F)F (stereo not given) | > 100 µM | > 100 µM | > 100 µM | > 100 µM | > 100 µM | > 100 µM | > 100 µM | > 100 µM | > 100 µM | > 100 µM |  |  |  |  |  |  |  |  |  |  |

— PubChem BioAssay (NCI)
